In patent US20220169680A1 (priority 2018, published 2022):

The sequences below were run on A549 cells.
Assay type: cell-based

Sequence	cell-penetrating peptide function compared with the parent polypeptide	cell entry at all time points	cell entry signal / cell entry properties
DRFFFKCFYRRLK [Jilin-2004(H5N1)-M2-44-56 mut9]	enhanced compared to the parent polypeptide		
DRFFFKRIFRRLKYRLKRRPST [Jilin-2004(H5N1)-M2-44-65 mut10]	stronger than that of the parent Jilin-2004(H5N1)-M2-44-65 polypeptide		
DRLFFKCIYRRLKYGRKR [Jilin-2004(H5N1)-M2-44-61 mut13]	stronger than that of the parent Jilin-2004(H5N1)-M2-44-61 polypeptide		
DRLFFRRIYRRLRYRLRRRPST [Jilin-2004(H5N1)-M2-44-65 mut24]	stronger than that of the parent Jilin-2004(H5N1)-M2-44-65 polypeptide		
ERGLQRRRFVQNALN [NC, reference compound]		no entry of polypeptides was observed	
GPSTEGVPESMREEYRQE [FITC-Jilin-2004(H5N1)-M2-62-79]			did not show cell entry properties
KYGLKRGPSTEGVPESMR [FITC-Jilin-2004(H5N1)-M2-56-73]			did not show cell entry properties
LKRGPSTEGVPESMREEY [FITC-Jilin-2004(H5N1)-M2-59-76]			did not show cell entry properties
RRLKYGLKRGPSTEGVPE [FITC-Jilin-2004(H5N1)-M2-53-70]			did not show cell entry properties
TEGVPESMREEYRQEQQS [FITC-Jilin-2004(H5N1)-M2-65-82]			did not show cell entry properties

System: A549 cells
Assay type: cell-based
Remark: another data set of the same source

Sequence	ability to carry small RNA into cells compared with the transfection reagent RNAiMax group, qPCR	ability to carry small RNA (PGY-sRNA-26) into cells, qPCR
DRFFFKCFFRRFKFGLKRGPST [Jilin-2004(H5N1)-M2-44-65 mut6]	stronger than the transfection reagent RNAiMax group	
DRFFFKCIFRRLKFGLKRGPST [Jilin-2004(H5N1)-M2-44-65 mut5]	stronger than the transfection reagent RNAiMax group	
DRFFFKCIYRRLKYGLKRGPST [Jilin-2004(H5N1)-M2-44-65 mut1]	stronger than the transfection reagent RNAiMax group	
DRFFFKCIYRRLKYGLKRRPST [Jilin-2004(H5N1)-M2-44-65 mut2]	stronger than the transfection reagent RNAiMax group	
DRFFFKRIFRRLKFRLKRRPST [Jilin-2004(H5N1)-M2-44-65 mut11]	stronger than the transfection reagent RNAiMax group	
DRLFFICIYRRLKYGLKR [Jilin-2004(H5N1)-M2-44-61 mut6]	stronger than the transfection reagent RNAiMax group	
DRLFFKCIYRRLKYGLII [Jilin-2004(H5N1)-M2-44-61 mut16]	stronger than the transfection reagent RNAiMax group	
DRLFFKCIYRRRKRGLKR [Jilin-2004(H5N1)-M2-44-61 mut12]	stronger than the transfection reagent RNAiMax group	
DRLFFKIIYRRLKYGLKR [Jilin-2004(H5N1)-M2-44-61 mut8]	stronger than the transfection reagent RNAiMax group	
DRLFFRRIYRRLKYGLKRGPST [Jilin-2004(H5N1)-M2-44-65 mut23]	stronger than the transfection reagent RNAiMax group	
DRRFFKCIYRRLKYGLKR [Jilin-2004(H5N1)-M2-44-61 mut4]	stronger than the transfection reagent RNAiMax group	
DRRRRKCRRRRRKYGRKR [Jilin-2004(H5N1)-M2-44-61 mut10]	stronger than the transfection reagent RNAiMax group	
KRGPSTEGVPESMREEYRQEQQS [Jilin-2004(H5N1)-M2-60-82]		Only the polypeptide Jilin-2004(H5N1)-M2-45-62 had the ability to carry small RNA into the cells
